Consider six molecules from ChEMBL document CHEMBL1123668, “Inhibition of aspartic proteinases by peptides containing lysine and ornithine side-chain analogues of statine” (J Med Chem, 1987).

The nature of assay [1]: Compound was evaluated for the inhibition of […] penicillopepsin; ( Value is time-dependent inhibition (TDI) with T1/2 > 30 s.).
The nature of assay [2]: Compound was evaluated for the inhibition of porcine penicillopepsin.
The next assay has as its target T1, Rhizopuspepsin (Rhizopus microsporus var. chinensis, UniProt P06026).
T1 sequence (P06026 whole entry): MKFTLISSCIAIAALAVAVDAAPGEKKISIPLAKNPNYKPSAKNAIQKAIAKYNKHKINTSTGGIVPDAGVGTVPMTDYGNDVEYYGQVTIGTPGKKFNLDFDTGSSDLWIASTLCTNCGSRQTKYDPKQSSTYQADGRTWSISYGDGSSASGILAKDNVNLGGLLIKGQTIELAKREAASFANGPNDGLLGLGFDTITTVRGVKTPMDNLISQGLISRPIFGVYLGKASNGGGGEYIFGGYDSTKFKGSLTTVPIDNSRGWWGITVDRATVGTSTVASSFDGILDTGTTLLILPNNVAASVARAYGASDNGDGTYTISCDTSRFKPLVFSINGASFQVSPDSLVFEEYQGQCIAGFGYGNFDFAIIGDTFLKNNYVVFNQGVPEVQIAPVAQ
Nature of the assay: Inhibition of Rhizopus chinensis pepsin.

A further assay has as its target Pepsin A (Sus scrofa, UniProt P00791). Nature of the assay: Compound was evaluated for the inhibition of porcine pepsin.
Assay [3] can be described thus: Compound was evaluated for the inhibition of […] penicillopepsin; Value is time-dependent inhibition (TDI) with T1/2 > 30 s).

Square brackets hold non-standard residues; d marks the D form. Peptide text beside a SMILES is read from it. * marks the point of attachment. ξ: configuration not given here. Sta = CC(C)C[C@H](N)[C@@H](O)CC(=O)O; Isovaleryl = CC(C)CC(=O)*; ξF = NC(Cc1ccccc1)C(=O)O

Sequence of Pepsin A (P00791 whole entry): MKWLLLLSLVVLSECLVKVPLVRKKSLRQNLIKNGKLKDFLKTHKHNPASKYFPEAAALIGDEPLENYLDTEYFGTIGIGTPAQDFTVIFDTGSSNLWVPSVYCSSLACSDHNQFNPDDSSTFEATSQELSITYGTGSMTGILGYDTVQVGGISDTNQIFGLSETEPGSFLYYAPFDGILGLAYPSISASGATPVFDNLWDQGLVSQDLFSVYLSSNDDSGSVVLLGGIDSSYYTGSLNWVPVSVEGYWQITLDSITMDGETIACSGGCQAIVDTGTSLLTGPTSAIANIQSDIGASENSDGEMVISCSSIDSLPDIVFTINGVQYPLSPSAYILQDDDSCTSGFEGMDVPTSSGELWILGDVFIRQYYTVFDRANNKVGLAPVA

In assay [1], `COC(=O)C(Cc1ccccc1)NC(=O)C[C@H](O)[C@H](CCCCN)NC(=O)[C@H](NC(=O)C(NC(=O)CC(C)C)C(C)C)C(C)C` (stereo partly specified) had a Ki of 0.08 nM.
Turning to `CCOC(=O)C[C@H](O)[C@H](CC(C)C)NC(=O)[C@@H](NC(=O)[C@@H](NC(=O)CC(C)C)C(C)C)C(C)C` (Isovaleryl-Val-Val-[Sta]-OEt), the Ki was 47 nM in assay [2] and 42 nM at Rhizopuspepsin.
Turning to `COC(=O)C(Cc1ccccc1)NC(=O)C[C@H](O)[C@H](CC(C)C)NC(=O)[C@@H](NC(=O)[C@@H](NC(=O)CC(C)C)C(C)C)C(C)C` (stereo partly specified) (Isovaleryl-VV[Sta][ξF]-OMe), the Ki in assay [1] came to 1.3 nM; on Rhizopuspepsin, 11 nM.
On to `CCOC(=O)C[C@H](O)[C@H](CCCCNC(C)=O)NC(=O)[C@H](NC(=O)C(NC(=O)CC(C)C)C(C)C)C(C)C` (stereo partly specified), for which the values for the Ki (in assay [2]; on Rhizopuspepsin; on Pepsin A) were 100 nM, 29 nM and 1900 nM, respectively.
As to `CCOC(=O)C[C@H](O)[C@H](CCCCN)NC(=O)[C@H](NC(=O)C(NC(=O)CC(C)C)C(C)C)C(C)C` (stereo partly specified), the Ki at Rhizopuspepsin amounted to 33 nM.
In the case of `CCOC(=O)CC(O)[C@H](CCCN)NC(=O)[C@H](NC(=O)C(NC(=O)CC(C)C)C(C)C)C(C)C` (stereo partly specified), the Ki in assay [3] amounted to 1.1 nM; at Rhizopuspepsin it was 47 nM.
